These results are taken from patent US20130005696A1, “BUFADIENOLIDE DERIVATIVES, PREPARING PROCESS THEREOF, COMPOSITION COMPRISING THE SAME AND THE USE THEREOF” (priority 2011, published 2013).

Like-named read-outs stand apart in the source and are kept apart here.

The subject of series [1] is RPMI-8226 human bone carcinoma cell line. Nature of the series: In vitro antitumor activity assay (SRB), RPMI8226. Format: cell-based. The conditions noted are these: RPMI8226, 72 h, Table 3. From the text: (§1) HeLa human cervical carcinoma cell line, A-549 human non-small cell lung carcinoma cell line, NCI-H2228 human lung carcinoma cell line, NCI-H460 human lung carcinoma cell line, MDA-MB-231 human breast carcinoma cell line, MCF-7 human breast carcinoma cell line, Bel-7402 human hepatic carcinoma cell line, Hep3B human hepatic carcinoma cell line, QGY-7703 human hepatic carcinoma cell line, MV-4-11 human leukemic cell line, DAUDI human leukemic cell line, Jurkat human leukemic cell line, A498 renal carcinoma cell line, LoVo human colon carcinoma cell line, HCT1116 human colon carcinoma cell line, A431 human skin carcinoma cell line, PANC-1 human pancreatic carcinoma cell line, U87-MG human brain carcinoma cell line, SH-SY5Y human brain carcinoma cell line, RPMI-8226 human bone carcinoma cell line, HT1080 human fibrosarcoma cell line, PC-3 human prostatic carcinoma cell line, AGS human gastric adenocarcinoma cell line, and BGC-823 human gastric adenocarcinoma cell line were purchased from the Cell Bank of the Chinese Academy of Sciences.
(§2) The positive control is bufalin (formulated according to the common method), its purity is 98% or more by HPLC-UV and its structure is identified by NMR. The compounds to be tested and the positive control were diluted with normal saline with a concentration gradient of 10^−4 M, 10^−5 M, 10^−6 M, 10^−7 M and 10^−8 M.
(§3) According to cell growth rate, tumor cells in the log phase of growth were seeded into 96-well culture plates at 100 μL per well, and allowed to attach for 24 hours, followed by addition of a test compound or positive control at 10 μL per well. For each concentration, the test was carried out in triplicate wells. […] Finally, Tris solution was added at 150 μL per well, and the absorbance (A) was measured at a wavelength of 515 nm using a microplate reader. The growth inhibition on tumor cell proliferation was calculated according to the following equation:
(§4) Growth Inhibition (%)=[(Absorbance of negative control−Absorbance of blank)−(Absorbance of sample−Absorbance of blank)]/(Absorbance of negative control−Absorbance of blank)×100% […]

Series [2] relates to A498 renal carcinoma cell line. Nature of the series: In vitro antitumor activity assay (SRB), A498. The conditions noted are these: A498, 72 h, Table 3. Format: cell-based, human.
From the text: as §1, §2, §3, §4

The test system of series [3] is Jurkat human leukemic cell line. Nature of the series: In vitro antitumor activity assay (SRB), Jurkat. The format is cell-based. The conditions noted are these: 72 h, Table 3.
From the text: as §1, §2, §3, §4

The subject of series [4] is PANC-1 human pancreatic carcinoma cell line. Nature of the series: In vitro antitumor activity assay (SRB), PANC-1. The format is cell-based. The settings on record: PANC-1, 72 h, Table 3.
From the text: as §1, §2, §3, §4

The subject of series [5] is BGC-823 human gastric adenocarcinoma cell line. Nature of the series: In vitro antitumor activity assay (SRB), BGC-823. Format: cell-based. The conditions noted are these: BGC-823, 72 h, Table 3.
From the text: as §1, §2, §3, §4

Series [6] concerns HCT-116 human-derived tumor cell line. Nature of the series: In vitro antitumor activity assay (SRB), HCT-116. The format is cell-based. The conditions noted are these: HCT-116, 72 h, Table 3.
From the text: as §1, §2, §3, §4

Series [7] relates to A-549 human non-small cell lung carcinoma cell line. Nature of the series: In vitro antitumor activity assay (SRB), A549. The format is cell-based.
From the text: as §1, §2
(§5) According to cell growth rate, tumor cells in the log phase of growth were seeded into 96-well culture plates at 100 μL per well, and allowed to attach for 24 hours, followed by addition of a test compound or positive control at 10 μL per well. For each concentration, the test was carried out in triplicate wells. Solvent control wells with addition of normal saline into cell culture and a blank well containing only cell culture medium but without cells for zeroing were also included. The tumor cells were incubated for 72 hours at 37° C. under 5% CO2, and then the culture medium (RPMI-1640) was removed. The cells were fixed with 10% cool TCA by incubating for 1 h at 4° C., washed with distilled water for 5 times, and dried naturally in the air. A solution of SRB (Sigma) (4 mg/mL) in 1% glacial acetic acid was added at 100 μL per well, and the cells were stained for 15 minutes at room temperature, and the supernatant was discarded. The plates were washed for 5 times with 1% acetic acid, and dried in air. Finally, Tris solution was added at 150 μL per well, and the absorbance (A) was measured at a wavelength of 515 nm using a microplate reader. The growth inhibition on tumor cell proliferation was calculated according to the following equation:
(§6) Growth Inhibition (%)=[(Absorbance of negative control−Absorbance of blank)−(Absorbance of sample−Absorbance of blank)]/(Absorbance of negative control−Absorbance of blank)×100%
(§7) Drug concentration: 10 μM, 1 μM, 0.1 μM, 10 nM, 1 nM, 0.1 nM.
(§8) IC50 was fitted by GraphPad Prism 4.

Series [8] deals with Hep3B human hepatic carcinoma cell line. Put plainly: In vitro antitumor activity assay (SRB), Hep3B. The format is cell-based. The conditions noted are these: 72 h, Table 3.
From the text: as §1, §2, §3, §4

The subject of series [9] is MDA-MB-231 human breast carcinoma cell line. Nature of the series: In vitro antitumor activity assay (SRB), MDA-MB-231. The settings on record: MDA-MB-231, 72 h, Table 3. Format: cell-based.
From the text: as §1, §2, §3, §4

Series [10] is described as follows: In vivo acute toxicity assay in mouse. The conditions noted are these: for LD50: in vivo, ip. How it is done: Sample Name: bufalin, II1E-01.HCl
35.8 mg of II1E-01.HCl was weighted, added with 1.78 mL of anhydrous ethanol, and dissolved completely under ultrasonication. 16.02 mL of 5% glucose injection was added and agitated homogeneously. The solution was filtered with a 0.2 μm filtration membrane to obtain a stock solution with a concentration of 2 mg/mL, wherein the content of ethanol is 10%. The highest dosage is 20 mg/kg, calculated based on the administration volume of 0.1 mL/10 g body weight of mouse.

Series [11] has as its system LoVo human colon carcinoma cell line. Nature of the series: In vitro antitumor activity assay (SRB), LoVo. Format: cell-based. The settings on record: Table 2, read-out: IC50, inhibition of cell proliferation, LoVo.
From the text: as §1, §2, §5, §6, §7, §8

Consider `C[C@]12CC[C@H](OC(=O)NC3CCNCC3)C[C@H]1CC[C@@H]1[C@@H]2CC[C@]2(C)[C@@H](c3ccc(=O)oc3)CC[C@]12O.Cl` [II1E-01•HCl], for which the IC50 in series [1] turned out to be 1.71 ± 0.03 nM; in series [2], 0.37 ± 0.05 nM; in series [3] it was 0.67 ± 0.1 nM; in series [4], 0.57 ± 0.06 nM; in series [5], 0.56 ± 0.07 nM; in series [6], 2.13 ± 0.28 nM. Moreover, the IC50 is 0.4 ± 0.22 nM in series [7] (A549, 72 h, Table 3, read-out: IC50 (72 h), A549); > 1000 nM in [8]; 7.31 ± 0.21 nM in series [9]. The “LD50 of intraperitoneal administration, female mouse” value in [10] (intraperitoneal, female mouse) is “about 18.21 mg/kg”. For the same compound, the “LD50 of intraperitoneal administration, male mouse” value in series [10] (intraperitoneal, male mouse) is on record as “about 14.75 mg/kg”. Moreover, the “LD50 of intravenous administration, female mouse” value in series [10] (intravenous, female mouse) is reported as “about 16.51 mg/kg”. In series [10] (intravenous, male mouse), the “LD50 of intravenous administration, male mouse” value is “about 13.60 mg/kg”. The “in vivo acute toxicity in mouse compared with bufalin, in words” value in [10] (mouse) was “lower in vivo acute toxicity in mouse than bufalin”.

`C[C@]12CC[C@H](O)C[C@H]1CC[C@@H]1[C@@H]2CC[C@]2(C)[C@@H](c3ccc(=O)oc3)CC[C@]12O` [bufalin, reference compound]: the IC50 in series [1] (Homo sapiens, RPMI-8226) was 13.5 ± 0.82 nM; in [11], 29.5 ± 1 nM; in [2] (Homo sapiens), 6.41 ± 0.75 nM; in series [3] (Homo sapiens) it was 8.79 ± 2.48 nM; in series [4] (Homo sapiens), 9.88 ± 0.27 nM; in [5] (Homo sapiens), 9.06 ± 0.37 nM. Also, the IC50 in series [6] (Homo sapiens) is 9.69 ± 0.64 nM; in [7] (Homo sapiens, A549, 72 h, Table 3, read-out: IC50 (72 h), A549), 8.74 ± 2.52 nM; in [7] (Homo sapiens, A549, Table 2, read-out: IC50, inhibition of cell proliferation, A549), 6.53 ± 1.64 nM; in [8] (Homo sapiens), > 1000 nM; in series [9] (Homo sapiens), 28.7 ± 1.66 nM. Further, the LD50 in series [10] (intraperitoneal, female mouse, read-out: LD50 of intraperitoneal administration, female mouse) is ~2.8 mg/kg; in [10] (intraperitoneal, male mouse, read-out: LD50 of intraperitoneal administration, male mouse) it was ~2.4 mg/kg.
